Consider seven compounds from patent US4277605A, “Chemical compounds” (priority 1980, dated 1981).

For series [1] the following is noted: even in its salt forms; cited from earlier work.
Series [2] is described as follows: Antidiarrheal activity, castor oil test in rats (modified Niemegeers). It counts as in vivo, male Sprague-Dawley rats. As to conditions: for RAS (Relative Antidiarrheal Specificity): Analgetic ED50 divided by the Antidiarrheal ED50, oral; for ED50: Rattus norvegicus; for separation between antidiarrheal and analgetic activity (in words): from RAS; for Antidiarrheal Activity ED50 (95% Confidence Limits) Castor Oil Test in Rats: 60 min. How it is done: A modification of the castor oil test described by Niemegeers [Arzneim.-Forsch., 22, 516-518 (1972)] was used. Male Sprague-Dawley rats (180-220 g) were dosed orally (in one case, subcutaneously) with a test compound or vehicle 1 hour before receiving a standard dose of castor oil orally (3 ml/rat). The rats were individually caged and examined for the presence of diarrhea hourly. Control animals had 100% incidence of diarrhea 1 hour after administering the castor oil. The percentage of rats protected from diarrhea was calculated 1 hour after the castor oil. Six rats were used per dose level.
(§1) Morphine sulfate was dissolved in distilled water.

A short description of series [3]: Suppression of withdrawal jumping due to abstinence in withdrawn morphine-dependent mice.
Series [4] can be described thus: Analgetic activity, radiant heat method (Rat Tail Flick Test). Format: in vivo, male Sprague-Dawley rats. As to conditions: Table I, oral, rats; for ED50: Rattus norvegicus, read-out: Analgetic Activity Rat Tail Flick ED50 (95% Confidence Limits). How it is done:
Analgetic activity was determined by the radiant heat method (Rat Tail Flick Test) of D'Amour and Smith [J. Pharm. Exp. Ther., 72, 74-79 (1941)] in Sprague-Dawley male rats (140-180 g). An all or none response was used to determine the dose of test material which produced at least a 100 percent increase in predose response time in 50 percent of the test animals (ED50). The ED50 values were based on at least 3 doses per drug (6 rats per dose level) and calculated by means of the Finney Dose Response procedure [Finney, D. J., Probit Analysis, University Press, Cambridge, England (1971)].
as §1
On the technique in general: Hot-plate and tail-flick tests time the reaction to a heat stimulus.

For series [5] the following is noted: high oral doses (40-60 mg); cited from earlier work.
Series [6] can be described thus: Suppression of body weight loss due to abstinence in withdrawn morphine-dependent rats. The following applies: oral administration, FIG. 1.
[7] abbreviates: Table I, oral, rats, 1 hour after castor oil, read-out: Antidiarrheal Activity Castor Oil Test in Rats ED50 (95% Confidence Limits).
[8] abbreviates: Table II, separate test, oral administration.
[9] abbreviates: Table II, d,l-Ia(1) subcutaneous, Ib(1) isomers oral.

As usually defined, the ED50 is the dose that gives a 50% effect, or the effect in half of the subjects. As for `CCOC(=O)C1(c2ccccc2)CCN(CCC(C#N)(c2ccccc2)c2ccccc2)CC1` [Diphenoxylate], in series [1], the “solubility (in words)” value was “highly insoluble”. Further, in series [2] (rats), the “RAS (Relative Antidiarrheal Specificity)” value worked out at 102. Besides, the ED50 is 0.11 mg/kg in series [2] (setting [7]) and 11.2 mg/kg in series [4]. Besides, the “antidiarrheal potency (in words)” value in series [2] (Table I, oral, rats) is “most potent antidiarrheal drug studied”. Further, in series [2] (oral, rats), the “improvement of RAS over morphine” value is “tenfold”. For the same compound, in series [3] (oral dose of 9 mg/kg), the “suppression of withdrawal jumping (in words)” value is “suppressed withdrawal jumping”. Further, the typical opioid effects result in series [5] was “euphoria, suppression or morphine abstinence, and a morphine-like physical dependence after chronic administration”.

Consider `COc1ccc2c3c1O[C@H]1C(=O)CC[C@@]4(O)[C@@H](C2)N(C)CC[C@]314` [Oxycodone], for which the “Percent Suppression of Withdrawal Jumping” value in series [3] (10 mg/kg po) is listed as 100%.

For the compound `CN1CC[C@]23c4c5ccc(O)c4O[C@H]2[C@@H](O)C=C[C@H]3[C@H]1C5` [Morphine SO4], the “RAS (Relative Antidiarrheal Specificity)” value in series [2] (rats) was found to be 14. Moreover, the “Antidiarrheal Activity Castor Oil Test in Rats ED50 (95% Confidence Limits)” value in series [2] (Table I, oral, rats, 1 hour after castor oil) was 2.2 (1.5-3.1) mg/kg. In addition, the “separation between antidiarrheal and analgetic activity (in words)” value in series [2] (oral, rats) was “poor separation between antidiarrheal and analgetic activity”. In series [3] (sc, limits (0.9-3.1) printed on next line), the “ED50, Suppression of Withdrawal Jumping” value was found to be 1.8. Also, in series [4], the “Analgetic Activity Rat Tail Flick ED50 (95% Confidence Limits)” value is recorded as 30.5 (26.3-35.0) mg/kg.

`CN1CC[C@]23CCC(=O)C[C@H]2[C@H]1Cc1ccc(O)cc13` [d-Ib(1), d-3-Hydroxy-N-methyl-7-oxomorphinan]: the “Antidiarrheal Activity ED50 (95% Confidence Limits) Castor Oil Test in Rats” value in series [2] (setting [8]) was less than 1.

As to `CN1CC[C@]23CCC(=O)C[C@H]2[C@H]1Cc1ccc(O)cc13` (relative stereo) [d,l-Ib(1), d,l-3-Hydroxy-7-oxo-N-methylmorphinan], the ED50 is 1.08 mg/kg in series [2] (1 h, Table II, separate test, oral administration, read-out: Antidiarrheal Activity ED50 (95% Confidence Limits) Castor Oil Test in Rats); 1.41 mg/kg in series [2] (setting [7]); greater than 150 mg/kg in series [4]. Moreover, the “separation between antidiarrheal and analgetic activity (in words)” value in series [2] (oral, rats) is “excellent separation between antidiarrheal and analgetic activity”. For the same compound, the “Percent Suppression of Withdrawal Jumping” value in series [3] (9 mg/kg po) and in series [3] (27 mg/kg po) was 0% in each case. Besides, the “suppressant action on withdrawal jumping (in words)” value in series [3] (oral, doses as high as 27 mg/kg) is given as “No suppressant action”. In addition, the “prevention of body weight loss due to morphine withdrawal / ability to substitute for morphine (in words)” value in series [6] is recorded as “no significant prevention of body weight loss”.

`CN1CC[C@]23CCC(=O)C[C@@H]2[C@H]1Cc1ccc(O)cc13` (relative stereo) [d,l-Ia(1), d,l-3-Hydroxy-7-oxo-N-methylisomorphinan]: in series [2] (sc, 1 h, Table II, separate test, subcutaneous administration, read-out: Antidiarrheal Activity ED50 (95% Confidence Limits) Castor Oil Test in Rats), the ED50 came out at 0.56 mg/kg. Also, the “antidiarrheal potency (in words)” value in series [2] (setting [9]) is “potent antidiarrheal agent”.

For the compound `CN1CC[C@]23CCC(=O)C[C@H]2[C@H]1Cc1ccc(O)cc13` [l-Ib(1), l-3-Hydroxy-N-methyl-7-oxomorphinan], the “Antidiarrheal Activity ED50 (95% Confidence Limits) Castor Oil Test in Rats” value in series [2] (setting [8]) is reported as 0.64 (0.46-0.86). For the same compound, the “antidiarrheal potency (in words)” value in series [2] (setting [9]) was “most potent isomer”.
